Assay results as given in PubChem BioAssay (NCI).
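A five-concentration, 48-hour dose response in 96-well plates underlies each endpoint, interpolated linearly between surrounding concentrations. Here, GI50 denotes the concentration required for 50% inhibition of growth. The concentration for full growth arrest is given as TGI.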

Tests used:
Experiment in all cases: DTP human tumour cell line panel, 48 h
[1] = test system: PC-3 prostate
[2] = test system: HCC-2998 colon
[3] = test system: T-47D breast
[4] = test system: MOLT-4 leukemia
[5] = test system: OVCAR-4 ovarian
[6] = test system: SR leukemia
[7] = test system: OVCAR-8 ovarian
[8] = test system: OVCAR-5 ovarian
[9] = test system: K-562 leukemia
[10] = test system: KM12 colon

Structure (SMILES)	TGI [1] [µM]	TGI [2] [µM]	TGI [3] [µM]	TGI [4] [µM]	TGI [5] [µM]	TGI [6] [µM]	TGI [7] [µM]	TGI [8] [µM]	TGI [9] [µM]	TGI [10] [µM]	GI50 [1] [µM]	GI50 [2] [µM]	GI50 [3] [µM]	GI50 [4] [µM]	GI50 [5] [µM]	GI50 [6] [µM]	GI50 [7] [µM]	GI50 [8] [µM]	GI50 [9] [µM]	GI50 [10] [µM]
COC1=CCC2=C(CCN(C(=O)C3CCC3)C2Cc2ccc(OC)c(O)c2)C1 (stereo not drawn)	> 100	41.3	62.4	> 100	> 100	> 100	> 100	92	> 100	> 100										
COC1CCC(n2c([C@@H]3CCCC(=O)N3c3ccc(F)c(F)c3)nc3cc(-c4c(C)noc4C)ccc32)CC1 (stereo partly drawn)	44.1	19.6	50.7	72.2	26.5	> 100	40.8	> 100	> 100	30.4	3.5	4.19	2.03	16.9	0.782	0.755	10.2	17.2	2.8	14
Cc1ccc(Nc2nc(NS(=O)(=O)c3cc(C)c(Cl)cc3S)n[nH]2)cc1	> 100	> 100	> 100	> 100	> 100	> 100	> 100	> 100	> 100	> 100										
c1ccc2nn(C3CCCCO3)nc2c1 (stereo not drawn)	> 100	> 100	> 100	> 100	> 100	> 100	> 100	> 100	> 100	> 100										
Cc1nn(C(=O)c2ccc(Cl)cc2)c2c1C(c1ccco1)SC(N)=N2 (stereo not drawn)	> 10	> 10	> 10	> 10	> 10	> 10	> 10	> 10	> 10	> 10										
CC1CN=C(N(C)C(=O)Nc2ccc(Cl)c(Cl)c2)S1 (stereo not drawn)	> 100	> 100	> 100	> 100	> 100	> 100	> 100	89.9	> 100	> 100										
c1csc(-c2nnc(C34CC5CC(CC(C5)C3)C4)o2)c1	> 100	> 100	> 100	60	> 100	66.6	98.4	> 100	> 100	> 100										
CCOC(=O)/C=C(/C(=O)OCC)n1ccc(=O)[nH]c1=O	26.8	32.3	16.6	6.12	38.7	16.8	27.4	14.4	6.55	34.8										
O=C1/C(=C2\SCC(=O)N2c2ccccc2)SC(=S)N1c1ccccc1	> 100	62.1	> 100	51.7	66.9	29.6	> 100	> 100	> 100	> 100										
c1cn[nH]c1	> 10	> 10	> 10	> 10	> 10	> 10	> 10		> 10	> 10										
O=C(c1ccccc1)n1[nH]c(=O)n(-c2ccc(Cl)cc2)c1=O	> 100	> 100	> 100	> 100	> 100	> 100	> 100	> 100	> 100	> 100										
CC(C)C(/C=C/c1ccccc1)=N\NC(=S)NN	> 100	> 100	> 100	> 100	> 100	> 100	> 100	> 100	> 100	> 100										
O=c1c(S(=O)(=O)Oc2ccccc2)coc2cc(F)ccc12	> 100	> 100	> 100	> 100	> 100	> 100	> 100	> 100	> 100	> 100										
CC(CN(C)C)C(=O)/C=C/c1ccc(Cl)c(Cl)c1 (stereo not drawn)	2.25	3.48	> 100	> 100	19	6.25	2.85	4.07	> 100	3.23										
Cn1c(=O)c2[nH]c(-n3nc(-c4ccccc4)cc3N)nc2n(C)c1=O	> 100	> 100	65.9	> 100	93.5	> 100	97.7	> 100	> 100	> 100										
C=C(COC(=O)C(C)C)[C@H]1Oc2ccc(C(C)=O)cc2[C@@H]1OC(=O)C(C)C	> 100	> 100	> 100	> 100	> 100	> 100	> 100	> 100	> 100	> 100										
Cc1[nH]c(=O)[nH]c(=O)c1C(=O)N(CCO)Cc1ccccc1	94.8	> 100	> 100	> 100	99.7	> 100		> 100	> 100	> 100										
